US5736565A, “Therapeutic compounds suitable for the treatment of diseases connected with glutathione deficiency, process for their preparation, and pharmaceutical compositions containing same” (Prospa B.V., priority 1992, dated 1998)
Where two headings read alike, the source gives them in different places. Peptide text beside a SMILES is read from it.

What was measured:
peripheral lymphocytes = assay: Blastization with concavaline A (ConA) of peripheral lymphocytes of PSC-treated rats; type: in vivo, Sprague-Dawley rats
Experimental: Sprague-Dawley rats (Charles River, Calco (CO)), aged 10 weeks (young adults) and 24 months (old), were stabled under standard conditions (24°±1° C., 12 h light/dark cycle, free access to food and water). Handlings were made in such a way as to avoid stressful stimuli.
The animals were stabled in groups of 6 per cage and treated for 2 weeks (15 days) with a PSC daily dose of 600 mg/kg by intraperitoneal route (i.p.).
Once the treatment with PSC previously described in the paragraph "Animals" was completed, the animals, both young and old, were sacrificed by decapitation and the blood collected in heparin-treated tubes. The blood samples were stratified on Ficoll-Paque gradient and centrifuged at 2500 rpm for 15 min. The lymphocytic cellular fraction was taken by suction and washed three times with a Lphysiological solution (0.9% NaCl). At the end of the treatment, the cells were resuspended in culture medium RPMI 1640 containing 10% FBS, counted (1×10^5 cells/0.1 ml/well) and incubated for 48 hrs at 37° C., in a 5% carbon dioxide environment. At the incubation end, mitogens concavaline A (ConA) and phytohaemagglutinin (PHA) were added to the cultures at a concentration of 1 μg/ml in a volume of 0.1 ml. Eighteen hours later, tritiated thymidine (0.01 ml) was added to the cultures, subsequently incubated for 3 hrs. At the incubation end, cells were sucked by cell harvester and the filters were placed in scintillation vials with addition of 5 ml of scintillating solution. Radioactivity (dpm) was measured 2 min. using a β-counter.
The results obtained on ConA- or PHA-treated groups (controls), on PSC-treated groups (600 mg/kg), and on groups that had not been treated either with ConA or PSC are compared in Tables 14 and 15.

[1] = system: reactive oxygen species (ROS) production of human spermatozoa; assay: Effect of PSC on the spermatic production of free radicals (chemiluminescence with luminol); type: cell-based
From the text: Free radicals production was investigated under basal and maximal conditions (after A23187 addition) on controls and in the presence of PSC.
A23187 is an ionophore bivalent cation that, under physiological conditions, promotes acrosomial reaction. It is used being capable of stimulating the production of superoxide radicals (Aitken R. J. et al., Generation of reactive oxygen species, lipid peroxidation and human sperm function, J. of Reproduction, 40, 183-197, 1989).
Seminal fluid was obtained from 11 donors previously subjected to a complete medical check-up, to exclude the presence, if any, of sexual transmission diseases. Samples were obtained by masturbation and analysed within 1.5 hrs thereafter.
Spermatozoa were separated from seminal fluid by three centrifugation cycles (500×g for 5 min) and resuspended in medium BWW (Biggers et al., "The culture of mouse embryos in vitro", Daniel J. C. ed., Methods in mammalian embryology, 86-116, 1971) at a concentration of 20×10^6 /ml.
The production of reactive oxygen species (ROS) was evaluated by chemiluminescence with luminol: human spermatozoa suspensions at a concentration of […] in a volume of 500 μl were subjected to the action of luminol (LM 100 mmol/l in dimethyl sulphoxide).Said spermatic suspension was then diluted with 500 μl of medium BWW alone (control) or containing PSC (10 mM); other spermatic suspensions contained A23187 (0.05 mg/ml) alone (positive control) and, respectively, A23187 (0.05 mg/ml)+PSC (10 mM).
3 Minutes later, the chemiluminescent signal was recorded. Reactive oxygen species (ROS) production was expressed as photons brust (cpm) recorded by a luminometer Berthold L 9500.

[2] = system: glutathione (GSH) in hepatocytes; assay: Tests in vitro: glutathione content of isolated rat hepatocytes; type: cell-based; conditions: for activity at 250 µM / activity at 500 µM / activity at 1000 µM / activity at 2500 µM / activity at 5000 µM: read-out: Glutathione concentrations; for activity at 1000 µM: DEM + 1.0 mM; for activity at 5000 µM: DEM + 5.0 mM
Experimental: The experimental model envisages the isolation of hepatic parenchymal cells of rats following perfusion, with collagenase, of the isolated organ. Prior to each test, hepatocytes vitality was quantified by Tripan Blue […]. Only the cells with a vitality greater than 90% were utilized. Hepatocytes were resuspended, at a concentration of 10^6 cells/ml, in a saline medium (Krebs Heinseleit) at ph 7.4, and then placed into rotating flasks in the presence of O2 (95%) and CO2 (5%), at 37° C. Cells keep vital for 5-6 hours at least.
[…] The cells were then washed for 30 min. and incubated with various concentrations of the test substance (from 0.25 to 5 mM).
By this experimental model it is possible to test the effect of the substance by evaluating the hepatic functionality determined by measurements of the vitality (Tables Nos. 3, 4, and 5) and of glutathione content (Tables 6, 7, and 8).
In the Tables 3-8 herein below reported, the controls are represented by normal hepatocytes, not treated either with DEM or with compound (I).

[3] = 600 mg/kg, analogous for ConA and PHA
[4] = Rattus norvegicus, Hepatocyte, 0 h, 0 time
[5] = Rattus norvegicus, Hepatocyte, 0.5 h, 30 min
[6] = Rattus norvegicus, Hepatocyte, 1 h, 1 hr
[7] = Rattus norvegicus, Hepatocyte, 2 h, 2 hrs
[8] = Rattus norvegicus, Hepatocyte, 4 h, 4 hrs

CC(=O)SC[C@H](NC(=O)[C@@H]1CCC(=O)N1)C(=O)O [PSC, 2-(S)-(2-pyrrolidone-5-(S)-carbonyl amido)-3-acetylmercapto propionic acid] (HELM PEPTIDE1{[Glp].C}|PEPTIDE2{[ac]}$PEPTIDE1,PEPTIDE2,2:R3-1:R2$$$V2.0)
blastization (tritiated thymidine incorporation), Young (peripheral lymphocytes; 600 mg/kg i.p. 15 days + ConA): 714 ± 23 DPM × 100 | blastization (tritiated thymidine incorporation), Elderly (peripheral lymphocytes; 600 mg/kg i.p. 15 days + ConA, *P < 0.05): 512 ± 27 DPM × 100 | incorporation index of tritiated thymidine, young rats (in words) (peripheral lymphocytes; [3]): did not differ from controls | index of thymidine incorporation, old rats (in words) (peripheral lymphocytes; [3]): showed an increased index of thymidine incorporation in respect of controls | free radicals production (in words) ([1]; basal and maximal conditions): caused a significant reduction in free radicals production | ROS production, photons brust ([1]; medium + A23187 (0.05 mg/ml) + PSC (10 mM)): 270.8 +/- 254 cpm | ROS production, photons brust ([1]; medium + PSC (10 mM), basal): 243.7 +/- 235.2 cpm | increase in the GSH content ([2]; DEM-pretreated hepatocytes, 2.5 and 5 mM): greater than 170% | activity at 250 µM ([2]; Rattus norvegicus, Hepatocyte, 0 h, DEM + 0.25 mM, 0 time): 28% | activity at 500 µM ([2]; Rattus norvegicus, Hepatocyte, 0 h, DEM + 0.50 mM, 0 time): 28.4% | activity at 1000 µM [2, 4]: 25.8% | activity at 2500 µM ([2]; Rattus norvegicus, Hepatocyte, 0 h, DEM + 2.5 mM, 0 time): 23.9% | activity at 5000 µM [2, 4]: 26.6% | activity at 250 µM ([2]; Rattus norvegicus, Hepatocyte, 0 h, no DEM, 0.25 mM, 0 time): 104% | activity at 500 µM ([2]; Rattus norvegicus, Hepatocyte, 0 h, no DEM, 0.50 mM, 0 time): 107% | activity at 2500 µM ([2]; Rattus norvegicus, Hepatocyte, 0 h, no DEM, 2.5 mM, 0 time): 99.5% | activity at 250 µM ([2]; Rattus norvegicus, Hepatocyte, 0.5 h, DEM + 0.25 mM, 30 min): 42.8% | activity at 500 µM ([2]; Rattus norvegicus, Hepatocyte, 0.5 h, DEM + 0.50 mM, 30 min): 45.7% | activity at 1000 µM [2, 5]: 52.7% | activity at 2500 µM ([2]; Rattus norvegicus, Hepatocyte, 0.5 h, DEM + 2.5 mM, 30 min): 61.1% | activity at 5000 µM [2, 5]: 69.4% | activity at 250 µM ([2]; Rattus norvegicus, Hepatocyte, 0.5 h, no DEM, 0.25 mM, 30 min): 117% | activity at 500 µM ([2]; Rattus norvegicus, Hepatocyte, 0.5 h, no DEM, 0.50 mM, 30 min): 144% | activity at 2500 µM ([2]; Rattus norvegicus, Hepatocyte, 0.5 h, no DEM, 2.5 mM, 30 min): 158% | activity at 250 µM ([2]; Rattus norvegicus, Hepatocyte, 1 h, DEM + 0.25 mM, 1 hr): 54.8% | activity at 500 µM ([2]; Rattus norvegicus, Hepatocyte, 1 h, DEM + 0.50 mM, 1 hr): 74.2% | activity at 1000 µM [2, 6]: 71% | activity at 2500 µM ([2]; Rattus norvegicus, Hepatocyte, 1 h, DEM + 2.5 mM, 1 hr): 89% | activity at 5000 µM [2, 6]: 92% | activity at 250 µM ([2]; Rattus norvegicus, Hepatocyte, 1 h, no DEM, 0.25 mM, 1 hr): 134% | activity at 500 µM ([2]; Rattus norvegicus, Hepatocyte, 1 h, no DEM, 0.50 mM, 1 hr): 155% | activity at 2500 µM ([2]; Rattus norvegicus, Hepatocyte, 1 h, no DEM, 2.5 mM, 1 hr): 182% | activity at 250 µM ([2]; Rattus norvegicus, Hepatocyte, 2 h, DEM + 0.25 mM, 2 hrs): 81.2% | activity at 500 µM ([2]; Rattus norvegicus, Hepatocyte, 2 h, DEM + 0.50 mM, 2 hrs): 103% | activity at 1000 µM [2, 7]: 96.7% | activity at 2500 µM ([2]; Rattus norvegicus, Hepatocyte, 2 h, DEM + 2.5 mM, 2 hrs): 119% | activity at 5000 µM [2, 7]: 119% | activity at 250 µM ([2]; Rattus norvegicus, Hepatocyte, 2 h, no DEM, 0.25 mM, 2 hrs): 142% | activity at 500 µM ([2]; Rattus norvegicus, Hepatocyte, 2 h, no DEM, 0.50 mM, 2 hrs): 159% | activity at 2500 µM ([2]; Rattus norvegicus, Hepatocyte, 2 h, no DEM, 2.5 mM, 2 hrs): 191% | activity at 250 µM ([2]; Rattus norvegicus, Hepatocyte, 4 h, DEM + 0.25 mM, 4 hrs): 83% | activity at 500 µM ([2]; Rattus norvegicus, Hepatocyte, 4 h, DEM + 0.50 mM, 4 hrs): 138% | activity at 1000 µM [2, 8]: 119% | activity at 2500 µM ([2]; Rattus norvegicus, Hepatocyte, 4 h, DEM + 2.5 mM, 4 hrs): 173% | activity at 5000 µM [2, 8]: 191% | activity at 250 µM ([2]; Rattus norvegicus, Hepatocyte, 4 h, no DEM, 0.25 mM, 4 hrs): 146% | activity at 500 µM ([2]; Rattus norvegicus, Hepatocyte, 4 h, no DEM, 0.50 mM, 4 hrs): 207% | activity at 2500 µM ([2]; Rattus norvegicus, Hepatocyte, 4 h, no DEM, 2.5 mM, 4 hrs): 211% | activation at 250 µM ([2]; Rattus norvegicus, Hepatocyte, DEM-pretreated hepatocytes, 0.25 mM, 4 hours, read-out: increase in GSH values): ~80% | activation at 500 µM ([2]; Rattus norvegicus, Hepatocyte, DEM-pretreated hepatocytes, 0.5 mM, 4 hours, read-out: increase in GSH values): 130 to 140% | activation at 1000 µM ([2]; Rattus norvegicus, Hepatocyte, DEM-pretreated hepatocytes, 1 mM, read-out: increase in the GSH content): ~120% | restoring thiol groups and in particular GSH (in words) ([2]; in vitro): greatly effective in restoring thiol groups and in particular GSH | permeability of the hepatocyte membrane (in words) ([2]; normal hepatocytes): clearly indicates the permeability of the hepatocyte membrane | increase in basal GSH at 2.5 mM compared with 0.5 mM (in words) ([2]; normal hepatocytes, 4 hours): superimposable to that caused by concentrations five times lower (0.5 mM) | increase in GSH basal values ([2]; normal hepatocytes, concentrations from 0.5 mM, after 4 hrs, in respect of controls): greater than 180%
